In ChEMBL document CHEMBL1128371, “Synthesis and structure-activity relationships of side-chain-substituted analogs of the allylamine antimycotic terbinafine lacking the central amino function” (1995):
Values after ≈ are worked out from the molar mass of the structure shown.

Experiments:
Candida parapsilosis = assay: In vitro antifungal activity against Candida parapsilosis 39; type: functional; conditions: Lodderomyces parapsilosis
Microsporum canis = assay: In vitro antifungal activity against Microsporum canis; type: functional
Aspergillus fumigatus = assay: In vitro antifungal activity against Aspergillus fumigatus; type: functional
Candida albicans = assay: In vitro antifungal activity against Candida albicans 124; type: functional
Sporothrix schenckii = assay: In vitro antifungal activity against Sporothrix schenck ii; type: functional
Trichophyton benhamiae = assay: In vitro antifungal activity against Trichophyton mentagrophytes; type: functional, Arthroderma benhamiae

Row | SMILES | MIC (Candida parapsilosis) [µg/mL] | MIC (Microsporum canis) [µg/mL] | MIC (Aspergillus fumigatus) [µg/mL] | MIC (Candida albicans) [µg/mL] | MIC (Sporothrix schenckii) [µg/mL] | MIC (Trichophyton benhamiae) [µg/mL]
1 | CC(C/C=C/C#CC(C)(C)C(N)=O)Cc1cccc2ccccc12 (stereo not given) | > 100 | > 100 | > 100 | > 100 | > 100 | > 100
2 | CC(C/C=C/C#CC(C)(C)N(C)C)Cc1cccc2ccccc12 (stereo not given) | 6.25 (≈ 19.6 µM) | 0.2 (≈ 0.626 µM) | 12.5 (≈ 39.1 µM) | 50 (≈ 156 µM) | 3.1 (≈ 9.7 µM) | 0.1 (≈ 0.313 µM)
3 | CC(=O)NC(C)(C)C#C/C=C/CC(C)Cc1cccc2ccccc12 (stereo not given) | > 50 | > 50 | > 50 | > 50 | > 50 | > 50
4 | CC(C/C=C/C#CC(C)(C)C)Cc1cccc2ccccc12 (stereo not given) | > 100 | 3.1 (≈ 10.7 µM) | > 100 | > 100 | > 100 | 0.4 (≈ 1.38 µM)
5 | CNC(=O)C(C)(C)C#C/C=C/CC(C)Cc1cccc2ccccc12 (stereo not given) | > 100 | 1.6 (≈ 4.8 µM) | > 100 | > 100 | > 100 | 0.4 (≈ 1.2 µM)
6 | CC(C/C=C/C#CC(C)(C)CN)Cc1cccc2ccccc12 (stereo not given) | > 50 | 25 (≈ 81.8 µM) | 50 (≈ 164 µM) | > 50 | 25 (≈ 81.8 µM) | 6.25 (≈ 20.5 µM)
7 | COC(=O)C(C)(C)C#C/C=C/CC(C)Cc1cccc2ccccc12 (stereo not given) | > 100 | 0.8 (≈ 2.39 µM) | > 100 | > 100 | > 100 | 0.1 (≈ 0.299 µM)
8 | CC(C/C=C/C#CC(C)(C)C#N)Cc1cccc2ccccc12 (stereo not given) | > 100 | 12.5 (≈ 41.5 µM) | > 100 | > 100 | > 100 | 0.4 (≈ 1.33 µM)
9 | CC(C/C=C/C#CC(C)(C)N)Cc1cccc2ccccc12 (stereo not given) | > 100 | 3.1 (≈ 10.6 µM) | 25 (≈ 85.8 µM) | > 100 | 12.5 (≈ 42.9 µM) | 1.6 (≈ 5.49 µM)
10 | CC(C/C=C/C#CC(C)(C)O)Cc1cccc2ccccc12 (stereo not given) | > 100 | > 100 | > 100 | > 100 | > 100 | 3.1 (≈ 10.6 µM)
11 | CC(C/C=C/C#CC(C)(C)N(C)c1ccccc1)Cc1cccc2ccccc12 (stereo not given) | > 100 | > 100 | > 100 | > 100 | > 100 | > 100
12 | CC(C/C=C/C#CC(C)(C)[N+](C)(C)C)Cc1cccc2ccccc12 (stereo not given) | 100 | > 100 | > 100 | 25 | 12.5 | > 100
13 | CC(C/C=C/C#CC(C)(C)C(=O)O)Cc1cccc2ccccc12 (stereo not given) | > 100 | > 100 | > 100 | > 100 | > 100 | > 100
14 | CC(C/C=C/C#CC(C)(C)CO)Cc1cccc2ccccc12 (stereo not given) | > 100 | 100 (≈ 326 µM) | > 100 | > 100 | > 100 | 3.1 (≈ 10.1 µM)
15 | CN(C/C=C/c1ccccc1)Cc1cccc2ccccc12 [NAFTIFINE] | 1.6 (≈ 5.57 µM) | 0.1 (≈ 0.348 µM) | 12.5 (≈ 43.5 µM) | – | 1.6 (≈ 5.57 µM) | 0.05 (≈ 0.174 µM)
16 | CN(C/C=C/C#CC(C)(C)C)Cc1cccc2ccccc12 [TERBINAFINE] | 0.8 (≈ 2.75 µM) | 0.006 (≈ 0.0206 µM) | 0.8 (≈ 2.75 µM) | 25 (≈ 85.8 µM) | 0.4 (≈ 1.37 µM) | 0.003 (≈ 0.0103 µM)
